In patent US20130079228A1, “Agricultural spray solution compositions and methods” (priority 2011, published 2013):

System: velvetleaf
Assay: efficacy of glyphosate spray on velvetleaf
Type: in vivo
Details: in presence of drift reducing adjuvants, especially DR
Excerpt: Applicant's invention further contemplates the use of drift management adjuvants on the atomization, drift, patternation, retention, deposit formation, and efficacy of an herbicide spray. The drift of the spray particles decreases by suppressing the formation of fine droplets, i.e., <150 microns in diameter. The impact of drift reducing additives on pesticide efficacy in terms of the effect on the major phases, i.e., the larger droplets, on the dose transfer process is also considered. Two representative drift reducing adjuvants, i.e., (1) polyacrylamide polymers represented by Nalcotrol or Nalcotrol II (N or N2), and (2) biodegradable polymers represented by AgRHO DR-2000 (DR) of Rhone-Poulenc Inc. were considered in mixtures containing glyphosate.
Pattern distributions undergo significant deviations from even distributions using herbicide alone when polymers are added. […] 30% less spray is reflected from the cabbage leaves from mixtures containing DR compared to either water alone or water containing polyacrylamide polymers. Spray retention is reduced by the addition of drift reducing adjuvants. DR is better at wetting the cabbage leaves. […] The efficacy of glyphosate on velvetleaf is enhanced by the presence of drift reducing adjuvants, especially DR. […]

O=C(O)CNCP(=O)(O)O [glyphosate]
efficacy of glyphosate on velvetleaf: enhanced
